The record followed here is patent US11844794B2, “Pharmaceutical compositions” (ADEPTIO PHARMACEUTICALS LIMITED, priority 2017, dated 2023).

In general, Cmax refers to the peak of the concentration-time curve.

Series [1] can be described thus: equilibrium aqueous solubility by HPLC. As to conditions: thermodynamic from solid; water, measured by HPLC; read-out: equilibrium solubility in water. Format: physicochemical. As for the experimental part:
The aqueous solubilities of salts were measured by an equilibrium method in which an amount of the salt was weighed into a 2 ml vial equipped with a magnetic stirrer bar and water added. In cases where complete dissolution was observed, more material was added until the sample was exhausted. The slurry was then stirred for seven days before isolating the solids by centrifuge-filtration. The solids were analysed by XRPD and the filtrates were analysed by HPLC to determine the amount of (+)-alpha-dihydrotetrabenazine salt in solution. The solubilities were calculated against a calibration curve established for a (+)-alpha-dihydrotetrabenazine sample of known concentration.

For series [2], the system named is amphetamine-induced rats. The series is described as follows: amphetamine-induced locomotor activity, open field test. Format: in vivo, rat. As for the experimental part:
All animal experiments were carried out according to the National Institute of Health (NIH) guidelines for the care and use of laboratory animals, and approved by the National Animal Experiment Board, Finland. Male CD (Charles River Laboratories, Germany) at weight range of 200-250 g (165-200 g upon arrival) were used for the experiments. Animals were housed at a standard temperature (22±1° C.) and in a light-controlled environment (lights on from 7 am to 8 pm) with ad libitum access to food and water.
Locomotor activity of the rats was tested in open field arena. The open field test was performed during the rat light cycle and under a normal lighting evenly distributed to the test chambers. The paths of the rats were recorded by activity monitor (Med. Associates Inc.).
Dosing the vehicle, vehicle-amphetamine, (+)-α-DHTBZ or risperidone was done prior to LMA test. The rats were placed in the centre of the arena, and the path was recorded for 60 minutes.
Animals were grouped as follows: • Group 1: 10 rats treated with Vehicle (t=0 min) and Vehicle (t=30 min) • Group 2: 10 rats treated with Vehicle (t=0 min) and Amphetamine (t=30 min) • Group 3: 10 rats treated with (+)-α-DHTBZ 0.5 mg/kg (t=0 min) and Amphetamine (t=30 min) • Group 4: 10 rats treated with (+)-α-DHTBZ 1 mg/kg (t=0 min) and Amphetamine (t=30 min) • Group 5: 10 rats treated with (+)-α-DHTBZ 1.5 mg/kg (t=0 min) and Amphetamine (t=30 min) • Group 6: 10 rats treated with (+)-α-DHTBZ 2 mg/kg (t=0 min) and Amphetamine (t=30 min) • Group 7: 10 rats treated with risperidone 1 mg/kg (t=0 min) and Amphetamine (t=30 min)
Rats dosed with either vehicle, (+)-α-DHTBZ 0.5 mg/kg, (+)-α-DHTBZ 1 mg/kg, (+)-α-DHTBZ 1.5 mg/kg, (+)-α-DHTBZ 2 mg/kg or Risperidone 1 mg/kg were subjected to LMA testing first for 30 min and then for 60 minutes after vehicle or amphetamine challenge. Resulting locomotor activity was evaluated in 3 min bins and as a total over the testing period.
Rats dosed with either vehicle, (+)-α-DHTBZ 0.5 mg/kg, (+)-α-DHTBZ 1 mg/kg, (+)-α-DHTBZ 1.5 mg/kg, (+)-α-DHTBZ 2 mg/kg or Risperidone 1 mg/kg were subjected to LMA testing first for 30 min and then for 60 minutes after vehicle or amphetamine challenge. Resulting stereotypic activity was evaluated in 3 min bins and as a total over the testing period. […]

Series [3] is described as follows: pharmacokinetics after oral administration to male Beagle dogs. Format: in vivo, Beagle dog. As to the method:
Doses were administered orally, via gavage, at a dose volume of 2.00 mL/kg yielding the target dose level of 1.50 mg/kg. Following dosing, 10 mL of tap water was flushed down the gavage to ensure the entire dose was dispensed. Following dosing over four sessions each with one of the test materials, serial whole blood samples (circa. 1.3 mL) were collected from a jugular vein then placed into K2 EDTA treated tubes pre-dose and then 0.25, 0.50, 1, 2, 3, 4, 6, 12 and 24 hours post dose. Blood samples were placed immediately on a cool-block before being centrifuged within 15 minutes at 3,000×g, 10 minutes, 4° C. and resultant plasma drawn off. […] Doses were administered orally, via gavage, at a dose volume of 2.00 mL/kg yielding the target dose level of 1.50 mg/kg. Following dosing, 10 mL of tap water was flushed down the gavage to ensure the entire dose was dispensed. Following dosing over four sessions each with one of the test materials, serial whole blood samples (circa. 1.3 mL) were collected from a jugular vein then placed into K2 EDTA treated tubes pre-dose and then 0.25, 0.50, 1, 2, 3, 4, 6, 12 and 24 hours post dose. Blood samples were placed immediately on a cool-block before being centrifuged within 15 minutes at 3,000×g, 10 minutes, 4° C. and resultant plasma drawn off.

Where [4] appears, read: Study 1, all the tested doses (0.5, 1, 1.5 and 2 mg/kg).
The mark [5] stands for this setting: male Beagle dogs, oral 1.50 mg/kg (freebase equivalent).

Values after ≈ are worked out from the molar mass of the structure shown.

Turning to `COc1cc2c(cc1OC)[C@H]1C[C@@H](O)[C@H](CC(C)C)CN1CC2` [(+)-α-dihydrotetrabenazine, (2R,3R,11bR)-3-isobutyl-9,10-dimethoxy-1,3,4,6,7,11b-hexahydro-2H-pyrido[2,1,a]isoquinolin-2-01], the solubility thermodynamic at 7 days in series [1] came out at 127 µg/mL (≈ 398 µM). Besides, the “total stereotypic behaviour compared to vehicle-vehicle group” value in series [2] (Study 1, 0.5 mg/kg plus amphetamine, male CD rats) is “significantly different”; in series [2] (Study 1, 1.5 mg/kg plus amphetamine, male CD rats), “significantly different”. The “total stereotypic behaviour compared to vehicle-amphetamine group” value was “significantly different” in series [2] (Study 1, 0.5 mg/kg, male CD rats); “significantly different” in series [2] (Study 1, 1 mg/kg, male CD rats); “significantly different” in series [2] (Study 1, 1.5 mg/kg, male CD rats); “significantly different” in series [2] (Study 1, 2 mg/kg, male CD rats); “significantly different” in series [2] (Study 2, 0.1 mg/kg, male CD rats); “significantly different” in series [2] (Study 2, 0.25 mg/kg, male CD rats). Besides, the “locomotor activity compared to vehicle-amphetamine group” value in series [2] (setting [4]) is reported as “lower locomotor activity”. In addition, the “stereotypic behaviour compared to vehicle-amphetamine group” value is given as “reduced stereotypic behaviour” in series [2] (setting [4]); “reduced stereotypic behaviour” in series [2] (Study 2, both the tested doses (0.1 and 0.25 mg/kg)). In series [2] (Study 1, locomotor activity and stereotypic behaviour), the “effect suggested by both measured parameters” value was “sedative effect similar to risperidone”. Besides, the “total distance travelled compared to vehicle-amphetamine group” value in series [2] (Study 2, 0.25 mg/kg, male CD rats, listed as (+)-α-DHTBZ) was “lower locomotor activity”. For the same compound, the Cmax in series [3] (dog, plasma, 1.5 mg/kg, male Beagle dogs, oral 1.50 mg/kg (freebase equivalent)) came out at 58.7 ng/mL. The mean exposure in series [3] (setting [5]) is 64.26 ng·mL·h. In addition, the “time post dose at which Cmax was observed” value in series [3] (setting [5]) stood at 0.25 h. The concentration at 6 h in series [3] (male, Beagle (HsdRcc:DOBE), dog, plasma, po, 1.5 mg/kg, Plasma concentration of (+)-α-dihydrotetrabenazine, Male 2, oral 1.50 mg/kg (freebase equivalent), 6 h, BLQ = <0.10 ng/mL) was 0.113 ng/mL.
